According to patent publication US20020156094A1, “Sulfonamide interleukin-1beta converting enzyme inhibitors” (Warner-Lambert Company, priority 1996, published 2002):
Several values for one entry are separate records, joined by “and”; a condition that tells them apart may be missing. Equal values may be shown once.

Legend:
Assay type in all cases: biochemical
[1] = molecular target: T1, ICE (interleukin-1β converting enzyme, Caspase-1) (Homo sapiens, UniProt P29466); assay: ICE Ki fluorescence assay (Ac-Tyr-Val-Ala-Asp-AMC hydrolysis); conditions: ICE 0.24 nM, 15 μM Ac-Tyr-Val-Ala-Asp-AMC, reversible competitive model
T1 sequence (P29466 120-297 limits assumed): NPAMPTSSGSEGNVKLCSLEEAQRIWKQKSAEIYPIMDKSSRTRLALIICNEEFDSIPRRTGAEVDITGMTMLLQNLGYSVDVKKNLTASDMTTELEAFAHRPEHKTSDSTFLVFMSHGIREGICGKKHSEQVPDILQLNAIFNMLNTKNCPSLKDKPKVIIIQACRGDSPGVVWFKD
T1 sequence (P29466 317-404 limits assumed): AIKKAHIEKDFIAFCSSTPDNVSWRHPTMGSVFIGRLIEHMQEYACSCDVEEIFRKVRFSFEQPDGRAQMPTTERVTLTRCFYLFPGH
Experimental: Substrate hydrolysis is monitored for 300 seconds by observing the fluorescence of released AMC using excitation at 380 nm and emission at 460 nm. Mean rates of substrate hydrolysis are evaluated by linear-regression analysis of the fluorescence vs time traces. To evaluate Ki, plots of percent inhibition vs inhibitor concentration are fit by non-linear regression to a reversible, competitive model: [formula]
Where the competition factor (1+[S]/KM)=2.

[2] = molecular target: T1, ICE (interleukin-1β converting enzyme, Caspase-1); assay: ICE Colorimetric Dose-Response (IC50) Assay; conditions: ICE approx. 24 nM, 60 min preincubation, 50 μM Ac-Tyr-Val-Ala-Asp-pNA, 25° C.
Experimental: ICE Colorimetric Dose-Response (IC50) Assay
(§1) Diluted inhibitor stocks are prepared by two-fold serial dilution from a primary stock whose concentration is selected (based on screening results or on prior attempts at IC50 evaluation) to achieve approximately 95% inhibition in the most concentrated well. Aliquots of each dilution are transferred to a microtitre plate in triplicate.
(§2) ICE enzyme is diluted to approximately 24 nM in HGE buffer (100 mM HEPES pH 7.5, 0.5 mM EDTA, 20% glycerol, 0.1% Bovine Serum Albumin (BSA)), and activated by adding dithiothreitol (DTT) to a final concentration of 5 mM. The activated enzyme is then aliquoted into wells containing inhibitor or vehicle, and the plate is preincubated for 60 minutes at ambient temperature. Substrate (Ac-Tyr-Val-Ala-Asp-pNA) is added to each well to a final concentration of 50 μM, and plates are placed in the microtitre plate-reader thermostated to 25° C. Beginning 5 minutes after addition of substrate, absorbance (405 nm) of wells is monitored for 1 hour, and activity is calculated as the mean rate of change in absorbance during this interval.

Ich-2 (Caspase-4) = molecular target: T2, Ich-2 (Caspase-4) (Homo sapiens, UniProt P49662); assay: Ich-2 (Caspase-4) Colorimetric Dose-Response (IC50) Assay; conditions: enzyme 64 nM, substrate Ac-Leu-Glu-Val-Asp-pNA
T2 sequence (P49662 81-270 limits assumed): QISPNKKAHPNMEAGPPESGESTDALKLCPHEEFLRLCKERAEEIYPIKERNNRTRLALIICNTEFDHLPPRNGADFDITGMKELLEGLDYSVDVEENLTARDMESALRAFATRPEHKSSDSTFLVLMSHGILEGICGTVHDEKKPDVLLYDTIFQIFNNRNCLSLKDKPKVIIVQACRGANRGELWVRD
T2 sequence (P49662 290-377 limits assumed): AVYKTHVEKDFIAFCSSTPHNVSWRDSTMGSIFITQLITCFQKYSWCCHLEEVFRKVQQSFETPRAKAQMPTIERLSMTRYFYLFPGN
Experimental: as §1, §2
Ich-2 (Caspase-4) Colorimetric Dose-Response (IC50) Assay
Inhibition of Ich-2 enzyme is assayed as described above for ICE, except that enzyme is used at 64 nM, and 60 µM of the Ich-2-specific substrate Ac-Leu-Glu-Val-Asp-pNA is used instead of the ICE substrate Ac-Tyr-Val-Ala-Asp-pNA.

Structure (SMILES)	Ki [1]	IC50 [2]	IC50 (Ich-2 (Caspase-4))
O=C(O)CC(NC(=O)OCc1ccccc1)C(=O)CNS(=O)(=O)CCc1ccccc1 (stereo not shown) [Example 2a, 3-Benzyloxycarbonylamino-4-oxo-5-(2-phenylethane-sulfonylamino)-pentanoic acid]	11 µM	73 µM	
O=C(O)CC(NC(=O)OCc1ccccc1)C(=O)CNS(=O)(=O)Cc1ccccc1 (stereo not shown) [Example 2c, 3-Benzyloxycarbonylamino-4-oxo-5-phenylmethanesulfonyl-amino-pentanoic acid]	18 µM and 14 µM	168 µM	
O=C(O)CC(NC(=O)OCc1ccccc1)C(=O)CNS(=O)(=O)c1ccccc1 (stereo not shown) [Example 2d, 5-Benzenesulfonylamino-3-benzyloxycarbonylamino-4-oxo-pentanoic acid]	37 µM	291 µM	
CS(=O)(=O)NCC(=O)C(CC(=O)O)NC(=O)OCc1ccccc1 (stereo not shown) [Example 2e, 3-Benzyloxycarbonylamino-5-methanesulfonylamino-4-oxo-pentanoic acid]	735 µM	1830 µM	
O=C(O)CC(NC(=O)OCc1ccccc1)C(=O)CNS(=O)(=O)c1cccc2ccccc12 (stereo not shown) [Example 2f, 3-Benzyloxycarbonylamino-5-(naphthalene-1-sulfonylamino)-4-oxo-pentanoic acid]	22 µM	174 µM	1010 µM
O=C(O)CC(NC(=O)OCc1ccccc1)C(=O)CNS(=O)(=O)CCC1CCCCC1 (stereo not shown) [Example 2g, 3-Benzyloxycarbonylamino-5-(2-cyclohexyl-ethanesulfonylamino)-4-oxo-pentanoic acid]	33 µM	136 µM	314 µM
O=C(O)CC(NC(=O)OCc1ccccc1)C(=O)CNS(=O)(=O)CCc1cccc2ccccc12 (stereo not shown) [Example 2h, 3-Benzyloxycarbonylamino-5-(2-naphthalen-1-yl-ethanesulfonylamino)-4-oxo-pentanoic acid]	16 µM	55.6 µM	199 µM
CC1(C)C2CC[C@]1(CS(=O)(=O)NCC(=O)C(CC(=O)O)NC(=O)OCc1ccccc1)C(=O)C2 (stereo partly drawn) [Example 2i, 3-Benzyloxycarbonylamino-5-(7,7-dimethyl-2-oxo-bicyclo[2.2.1]hept-1-(R)-ylmethanesulfonylamino)-4-oxo-pentanoic acid]	30.1 µM	25 µM	59 µM
O=C(O)CC(NC(=O)OCc1ccccc1)C(=O)CNS(=O)(=O)CC1CCc2ccccc21 (stereo not shown) [Example 2j, 3-Benzyloxycarbonylamino-5-(indan-1-ylmethanesulfonylamino)-4-oxo-pentanoic acid]	65 µM	194 µM	159 µM
O=C(O)CC(NC(=O)OCc1ccccc1)C(=O)CNS(=O)(=O)CC1(F)c2ccccc2-c2ccccc21 (stereo not shown) [Example 2k, 3-Benzyloxycarbonylamino-5-(9-fluoro-9H-fluoren-9-ylmethanesulfonylamino)-4-oxo-pentanoic acid]	22 µM		
CC1(C)C2CCC1(CS(=O)(=O)NCC(=O)C(CC(=O)O)NC(=O)OCc1ccccc1)C(=O)C2 [Example 2l, 3-Benzyloxycarbonylamino-5-(7.7-dimethyl-2-oxo-bicyclo[2.2.1]hept-1-(S)-ylmethanesulfonylamino)-4-oxo-pentanoic acid]	1.4 µM	28 µM	935 µM
CC1(C)C2CCC1(CS(=O)(=O)NCC(=O)[C@@H](CC(=O)O)NC(=O)OCc1ccccc1)CC2 [Example 2m, (R)-3-Benzyloxycarbonylamino-5-(7,7-dimethyl-bicyclo[2.2.1]hept-1-ylmethane-sulfonylamino)-4-oxo-pentanoic acid]	2.8 µM	35.3 µM	
CC(NC(=O)C(NC(=O)OCc1ccccc1)C(C)C)C(=O)NC(CC(=O)O)C(=O)CNS(=O)(=O)CCc1ccccc1 (stereo not shown) [Example 3a, 3-[2-(2-Benzyloxycarbonylamino-3-methyl-butyrylamino)-propionylamino]-4-oxo-5-(2-phenyl-ethanesulfonylamino)-pentanoic acid]	0.007 µM	0.072 µM	18 µM
CC(C)C(NC(=O)C(CCC(=O)O)NC(=O)OCc1ccccc1)C(=O)NC(CC(=O)O)C(=O)CNS(=O)(=O)CCc1ccccc1 (stereo not shown) [Example 3b, 3-[2-(2-Benzyloxycarbonylamino-4-carboxy-butyrylamino)-3-methyl-butyrylamino]-4-oxo-5-(2-phenyl-ethanesulfonylamino)-pentanoic acid]	0.013 µM	0.025 µM	4.2 µM
CC(C)C(NC(=O)C(CCC(=O)O)NC(=O)CCc1ccccc1)C(=O)NC(CC(=O)O)C(=O)CNS(=O)(=O)CCc1ccccc1 (stereo not shown) [Example 3c, 3-{2-[4-Carboxy-2-(3-phenyl-propionylamino)-butyrylamino]-3-methyl-butyrylamino}-4-oxo-5-(2-phenyl-ethanesulfonylamino)-pentanoic acid]	0.0051 µM	0.009 µM	3.4 µM
CC(=O)NC(Cc1ccc(O)cc1)C(=O)NC(CCC(=O)O)C(=O)NC(C(=O)NC(CC(=O)O)C(=O)CNS(=O)(=O)CCc1ccccc1)C(C)C (stereo not shown) [Example 3d]	0.0078 µM	0.003 µM	0.9 µM
CC(=O)NC(C(=O)NC(CC(=O)O)C(=O)CNS(=O)(=O)C[C@]12CCC(CC1=O)C2(C)C)C(C)C (stereo partly drawn) [Example 4a, 3-(2-Acetylamino-3-methyl-butyrylamino)-5-(7,7-dimethyl-2-oxo-bicyclo [2.2.1]hept-1-(S)-ylmethanesulfonylamino)-4-oxo-pentanoic acid]	0.27 µM	7.6 µM	
CC(NC(=O)C(NC(=O)OCc1ccccc1)C(C)C)C(=O)NC(CC(=O)O)C(=O)CNS(=O)(=O)CC12CCC(CC1=O)C2(C)C (stereo not shown) [Example 4c, 3-[2-(2-Benzyloxycarbonylamino-3-methyl-butyrylamino)-propionylamino]-5-(7,7-dimethyl-2-oxo-bicyclo[2.2.1]hept-1-ylmethanesulfonylamino)-4-oxo-pentanoic acid]	0.001 µM	0.015 µM	8.5 µM
CC(C)C(NC(=O)C(CCC(=O)O)NC(=O)CCc1ccccc1)C(=O)NC(CC(=O)O)C(=O)CNS(=O)(=O)CC12CCC(CC1=O)C2(C)C (stereo not shown) [Example 4d]	0.0016 µM	0.003 µM	1.6 µM
O=C(O)C[C@H](NC(=O)CN1CCc2ccccc2C1=O)C(=O)CNS(=O)(=O)c1ccccc1 [Example 5a, 3-(1,2,3,4,-Tetrahydro-1-oxo-isoquinoline-2-yl)acetamino-5-benzenesulfonyl amino-4-oxo-pentanoic acid]	105 µM	586 µM	
O=C(O)C[C@H](NC(=O)CN1CCc2ccccc2C1=O)C(=O)CNS(=O)(=O)CCc1ccccc1 [Example 5c, (S)-4-Oxo-3-[2-(1-oxo-3,4-dihydro-1H-isoquinolin-2-yl)-acetylamino]-5-(2-phenyl-ethanesulfonylamino)-pentanoic acid]	45 µM	371 µM	
O=C(O)CC(NC(=O)CN1CCc2ccccc2C1=O)C(=O)CNS(=O)(=O)Cc1ccccc1 (stereo not shown) [Example 5d, 4-Oxo-3-[2-(1-oxo-3,4-dihydro-1H-isoquinolin-2-yl)-acetylamino]-5-phenylmethanesulfonylamino-pentanoic acid]	27 µM	234 µM	
